Source: US20080275248A1, “NOVEL 4BETA-AMINO PODOP[…] AS POTENTIAL ANTICANCER AGENTS AND A PROCESS FOR THE PREPARATION THEREOF” (priority 2007, published 2008)
Converted amounts (≈) assume the structure as drawn. Like-named read-outs stand apart in the source and are kept apart here.

Columns and labels:
Format in all cases: cell-based, human
[1] = test system: Colo205; assay: SRB cytotoxicity assay, colon Colo205; conditions: for IC50: Homo sapiens, read-out: Activity status in terms of IC50 values, Colon Colo205
Description: (§1) Single cell suspension of the tumor cells grown in tissue culture were made, cells counted and cell count adjusted to 1×10 ^5 to 5×10^5 cells/ml. Ninety six (96) well plates were seeded with this cell suspension, each well receiving 100 μl of it. The plate was then be incubated at 37° C. temperature in CO2 incubator for 24 hours. Drugs were added at appropriate concentrations after 24-hour incubation followed by further incubation for 48 hours. Experiment was terminated by gently layering the cells in the wells with 30% TCA and plates were kept in refrigerator for 1 hour following which they were washed thoroughly with tap water, dried attained with 0.4% SRB in 1% acetic aid and finally, the bound SRB eluted with 10 mM tris. Absorbance was read at 540 nm, in the microtitre-plate reader. Optical density of drug-treated cells was compared with that of control cells and cell inhibition was calculated as percent values. Each compound was tested at 10, 20, 40 and 80 μg/ml in triplicate on human malignant cell lines.

[2] = test system: DU145; assay: SRB cytotoxicity assay, prostate DU145; conditions: for IC50: Homo sapiens, read-out: Activity status in terms of IC50 values, Prostate DU145
Description: as §1

[3] = test system: PC3; assay: SRB cytotoxicity assay, prostate PC3; conditions: for IC50: Homo sapiens, read-out: Activity status in terms of IC50 values, Prostate PC3
Description: as §1

[4] = test system: Hop62; assay: SRB cytotoxicity assay, lung Hop62; conditions: for IC50: Homo sapiens, read-out: Activity status in terms of IC50 values, Lung Hop62
Description: as §1

[5] = test system: MCF7; assay: SRB cytotoxicity assay, breast MCF7; conditions: for IC50: Homo sapiens, read-out: Activity status in terms of IC50 values, Breast MCF7
Description: as §1

[6] = test system: Zr-75-1; assay: SRB cytotoxicity assay, breast Zr-75-1; conditions: for IC50: Homo sapiens, read-out: Activity status in terms of IC50 values, Breast Zr-75-1
Description: as §1

[7] = test system: SiHa; assay: SRB cytotoxicity assay, cervix SiHa; conditions: for IC50: Homo sapiens, read-out: Activity status in terms of IC50 values, Cervix SiHa
Description: as §1

[8] = test system: HT1080; assay: SRB cytotoxicity assay, oral HT1080; conditions: for IC50: Homo sapiens, read-out: Activity status in terms of IC50 values, Oral HT1080
Description: as §1

[9] = test system: DWD; assay: SRB cytotoxicity assay, oral DWD; conditions: for IC50: Homo sapiens, read-out: Activity status in terms of IC50 values, Oral DWD
Description: as §1

[10] = Colo205 colon cancer cells, SRB assay, 48 hours drug incubation
[11] = DU145 prostate cancer cells, SRB assay, 48 hours drug incubation
[12] = PC3 prostate cancer cells, SRB assay, 48 hours drug incubation
[13] = Hop62 lung cancer cells, SRB assay, 48 hours drug incubation
[14] = MCF7 breast cancer cells, SRB assay, 48 hours drug incubation
[15] = Zr-75-1 breast cancer cells, SRB assay, 48 hours drug incubation
[16] = SiHa cervix cancer cells, SRB assay, 48 hours drug incubation
[17] = HT1080 oral cancer cells, SRB assay, 48 hours drug incubation
[18] = DWD oral cancer cells, SRB assay, 48 hours drug incubation

Row | SMILES | Activity status in terms of IC50 values, Colon Colo205 [1, 10] [µg/mL] | Activity status in terms of IC50 values, Prostate DU145 [2, 11] [µg/mL] | Activity status in terms of IC50 values, Prostate PC3 [3, 12] [µg/mL] | Activity status in terms of IC50 values, Lung Hop62 [4, 13] [µg/mL] | Activity status in terms of IC50 values, Breast MCF7 [5, 14] [µg/mL] | Activity status in terms of IC50 values, Breast Zr-75-1 [6, 15] [µg/mL] | Activity status in terms of IC50 values, Cervix SiHa [7, 16] [µg/mL] | Activity status in terms of IC50 values, Oral HT1080 [8, 17] [µg/mL] | Activity status in terms of IC50 values, Oral DWD [9, 18] [µg/mL] | further results
1 | COc1cc(C2c3cc4c(cc3C(Nc3ccc(-c5nc6ccccc6s5)cc3)C3COC(=O)C23)OCO4)cc(OC)c1O (stereo not drawn) [Compound 4b, 4′-O-Demethyl-4β-[4″-(1″,3″-benzothiazole-2″-yl)anilino]-4-desoxypodophyllotoxin] | 8 | 13 | >80 | 8 | >80 | >80 | >80 | >80 | 6 | 
2 | COc1cccc2c1C(=O)c1c(O)c3c(c(O)c1C2=O)C[C@@](O)(C(=O)CO)C[C@@H]3O[C@H]1C[C@H](N)[C@H](O)[C@H](C)O1 [ADR, Adriamycin, reference compound] |  |  |  |  |  |  |  |  |  | IC50 ([1]; COLO 205, Colo205 colon cancer cells, SRB assay, 48 hours drug incubation): 5 µg/mL (≈ 9.2 µM); IC50 ([2]; DU-145, DU145 prostate cancer cells, SRB assay, 48 hours drug incubation): 6 µg/mL (≈ 11 µM); IC50 ([3]; PC-3, PC3 prostate cancer cells, SRB assay, 48 hours drug incubation): 5 µg/mL (≈ 9.2 µM); IC50 ([4]; HOP-62, Hop62 lung cancer cells, SRB assay, 48 hours drug incubation): 5 µg/mL (≈ 9.2 µM); IC50 [5, 14]: 5 µg/mL (≈ 9.2 µM); IC50 [6, 15]: 5 µg/mL (≈ 9.2 µM); IC50 [7, 16]: 5 µg/mL (≈ 9.2 µM); IC50 ([8]; HT-1080, HT1080 oral cancer cells, SRB assay, 48 hours drug incubation): 4 µg/mL (≈ 7.36 µM); IC50 [9, 18]: 2 µg/mL (≈ 3.68 µM)
3 | COc1cc(C2c3cc4c(cc3C(Nc3ccc(-c5nc6ccc(F)cc6s5)cc3)C3COC(=O)C23)OCO4)cc(OC)c1O (stereo not drawn) [Compound 4h, 4′-O-Demethyl-4β-[4″-(6″-fluoro-1″,3″-benzothiazole-2″-yl)anilino]-4-desoxypodophyllotoxin] | 8 | >80 | >80 | 10 | >80 | >80 | >80 | >80 | 9 | 
4 | COc1cc([C@@H]2c3cc4c(cc3[C@H](O)[C@H]3COC(=O)[C@H]23)OCO4)cc(OC)c1OC [Compound 1, Podophyllotoxin, reference compound] |  |  |  |  |  |  |  |  |  | IC50 ([1]; COLO 205, 48 h): 5 µg/mL (≈ 12.1 µM); IC50 ([2]; DU-145, 48 h): 2 µg/mL (≈ 4.83 µM); IC50 ([3]; PC-3, 48 h): 8 µg/mL (≈ 19.3 µM); IC50 ([4]; HOP-62, 48 h): 13 µg/mL (≈ 31.4 µM); IC50 ([5]; MCF7, 48 h): 3 µg/mL (≈ 7.24 µM); IC50 ([6]; ZR-75-1, 48 h): 7 µg/mL (≈ 16.9 µM); IC50 ([7]; SiHa, 48 h): 23 µg/mL (≈ 55.5 µM); IC50 ([8]; HT-1080, 48 h): 8 µg/mL (≈ 19.3 µM); IC50 ([9]; DWD, 48 h): 6 µg/mL (≈ 14.5 µM)
5 | COc1cc(C2c3cc4c(cc3C(Nc3ccc(-c5nc6ccccc6s5)cc3)C3COC(=O)C23)OCO4)cc(OC)c1OC (stereo not drawn) [Compound 4a, 4β-[4″-(1″,3″-benzothiazole-2″-yl)anilino]-4-desoxypodophyllotoxin] | 8 | >80 | >80 | >80 | >80 | >80 | >80 | 8 | 22 | 
6 | COc1cc(C2c3cc4c(cc3C(Nc3ccc(-c5nc6ccccc6s5)c(Cl)c3)C3COC(=O)C23)OCO4)cc(OC)c1OC (stereo not drawn) [Compound 4c, 4β-[4″-(1″,3″-Benzothiazole-2″-yl)-3″-chloroanilino]-4-desoxypodophyllotoxin] | 7 | >80 | >80 | 15 | >80 | >80 | >80 | 9 | 5 | 
7 | COc1cc(C2c3cc4c(cc3C(Nc3ccc(-c5nc6ccccc6s5)c(Cl)c3)C3COC(=O)C23)OCO4)cc(OC)c1O (stereo not drawn) [Compound 4d, 4′-O-Demethyl-4β-[4″-(1″,3″-benzothiazole-2″-yl)-3″-chloroanilino]-4-desoxypodophyllotoxin] | 7 | >80 | >80 | 60 | >80 | >80 | >80 | 9 | 7 | 
8 | COc1cc(C2c3cc4c(cc3C(Nc3ccc(-c5nc6ccc(F)cc6s5)cc3)C3COC(=O)C23)OCO4)cc(OC)c1OC (stereo not drawn) [Compound 4g, 4β-[4″-(6″-Fluoro-1″,3″-benzothiazole-2″-yl)anilino]-4-desoxypodophyllotoxin] | 7 | >80 | >80 | 30 | >80 | >80 | >80 | 9 | 5 | 
